Reference: patent US20220395464A1, “ORALLY ADMINISTERED SOLID DOSAGE FORM DRUG” (ASCENTAWITS PHARMACEUTICALS, LTD., priority 2019, published 2022)
Several values for one entry are separate records, joined by “and”; a condition that tells them apart may be missing. Identical values can stand only once.

Experiments:
[1] = Stability in hepatomicrosome with NADPH (LC-MS/MS); type: in vitro ADME, human; details: for % Remaining: human hepatomicrosome 0.5 mg/ml, NADPH 2 mM, 37° C., Sample 1, Sample 2
Procedure: The compounds, hepatomicrosome and reduced coenzyme NADPH were mixed together. Besides, a final concentration of the hepatomicrosome was 0.5 mg/ml, and human, male and mixed types of the hepatomicrosome were purchased. A final concentration of the NADPH was 2 mM. Next, the preceding mixtures were incubated in buffer (100 mM KH2PO4—K2HPO4) at 37° C. for 0, 5, 15, 30, 45, and 60 minutes, respectively. At the appointed incubation time, the reaction was terminated by the addition of an internal standard solution. Finally, the samples were centrifuged and the supernatant was taken for detection by LC-MS/MS.
Through mass spectrometry analysis, a concentration of the compounds in each sample was expressed by a peak-area ratio (a ratio of the peak-area of the compound to a peak-area of the internal standard). Then, each remaining percentage of the compounds (% Remaining) at each appointed incubation time was calculated with a reference that 0 minute at each concentration of the compounds. In logarithm of the remaining percentage was fitted linearly with the appointed incubation times, and a half-life and an intrinsic clearance were calculated according to the following formulas.
The remaining percentage (% Remaining)=(a peak area ratio at a certain appointed time (PARappointed time)/a peak area ratio at 0 minute (PAR0-mm)×100 (PAR: peak area ratio)
The elimination rate constant (k)=a negative of a slope (-gradient)
In vitro clearance (CLint, in vitro) (ml/min/mg)=k/c (c: a concentration of hepatomicrosome in the incubation system)

[2] = Pharmacokinetics after single intravenous drip infusion, plasma LC-MS/MS; type: in vivo, Philippine macaques; details: individual animals 101, 102, 103; for Plasma-drug concentration: AST-3424-D6 intravenous drip infusion 0.42 mg/kg
Procedure: AST-3424 and AST-3424-D6 (i.e. the compound of formula I) were administered to Philippine macaques by intravenous drip infusion, and blood samples were collected at different appointed times. LC-MS/MS was used to determine concentrations of the test substances in plasma of the Philippine macaques after administration, and relevant pharmacokinetic parameters were calculated.
Preparation method: 0.447 ml of AST-3424 (0.2 mg/ml) and 0.481 ml of AST-3424-D6 (0.2 mg/ml) were added into 104.272 ml of the dissolvent, respectively, and mixed for 5 minutes to obtain colorless and clarified solutions with pH 7.0.
The four male Philippine macaques were purchased from Guangxi Xiongsen Primate Development Experiment Co., Ltd. All Philippine macaques were healthy with qualified medical examination and no abnormality. Three of animals were used for the experiment, and one of them was used to prepare blank plasma.
About 0.8 ml of blood samples were collected through femoral vein and anticoagulated with heparin sodium. Appointed times of blood collection were before administration, 0.17, 0.25, 0.5, 0.75, 1, 2, and 4 hours after administration.
The blood samples were placed on ice after collection. Next, plasma samples were separated by centrifugation, and centrifugation conditions were 3500 rpm for 10 minutes at 4° C. Then, the collected plasma samples were stored at −80° C. until analysis. The plasma samples were analyzed by LC-MS/MS by an analysis department of an experimental institution. Besides, Lower limit of quantifications (LLOQ) of AST-3424 and AST-3424-D6 detection were 1 ng/ml. The accuracy of analysis results of an accompanying standard curve and a quality control samples all met the relevant requirements of biological analysis (the accuracy of the quality control samples exceeding 66.7% was between 85˜115%) in a process of the sample detection.
According to average blood concentration data of each group at each appointed time, the pharmacokinetic parameters of the compounds were respectively computed by a pharmacokinetic computing software, a non-compartmental model. In addition, the pharmacokinetic parameters were AUC0-t, AUC0-∞, MRT0-∞, Cmax, Tmax, t1/2, etc. In the case of the concentrations of the samples whose concentration being lower than a lower limit of quantification, the following schemes were used to compute the pharmacokinetic parameters. The samples sampled before reaching Cmax shall be computed as zero value, while the samples sampled after reaching Cmax shall be computed as non-quantifiable (marked as “BLQ”).
After a single intravenous infusion of the compounds AST-3424 and AST-3424-D6 was administered to the Philippine macaques, the whole blood samples of the corresponding animals were collected at the appointed times. Next, the whole blood samples were processed and biologically analyzed to obtain concentrations of the compounds in the plasma at the different appointed times. Results of the assay were listed in Table 14 below, and corresponding means of the plasma-drug concentration-time curves are shown in FIG. 3.
According to the plasma-drug concentration data of each drug group, the pharmacokinetic parameters of each compound group were computed using the non-compartmental model of the pharmacokinetic computing software. The pharmacokinetic

[3] = AST-3424-D6 single intravenous infusion, Table 15 heading 0.58 mg/kg (text: 0.42 mg/kg), plasma

[2H]C([2H])([2H])N(C(=O)c1cccc(Oc2cc([C@H](C)OP(=O)(N3CC3)N3CC3)ccc2[N+](=O)[O-])c1)C([2H])([2H])[2H] [AST-3424-D6]
Stability parameter k (elimination rate constant) ([1]; human hepatomicrosome): 0.0349 min⁻¹ | % Remaining ([1]; 0 minutes): 101.60% and 98.40% | % Remaining ([1]; 5 minutes): 85.07% and 87.20% | % Remaining ([1]; 15 minutes): 62.93% and 60.00% | % Remaining ([1]; 30 minutes): 36.80% and 34.93% | % Remaining ([1]; 45 minutes): 21.17% and 21.07% | % Remaining ([1]; 60 minutes): 13.52% and 12.75% | % Remaining, Average ([1]; human hepatomicrosome, 0 minutes): 100.00% | % Remaining, Average ([1]; human hepatomicrosome, 5 minutes): 86.13% | % Remaining, Average ([1]; human hepatomicrosome, 15 minutes): 63.47% | % Remaining, Average ([1]; human hepatomicrosome, 30 minutes): 35.87% | % Remaining, Average ([1]; human hepatomicrosome, 45 minutes): 21.12% | % Remaining, Average ([1]; human hepatomicrosome, 60 minutes): 13.13% | Hepatomicrosome stability compared with AST-3424, in words ([1]; human hepatomicrosome, FIG. 2 and Table 13): more stable | Remaining percentage higher than that of AST-3424 ([1]; human hepatomicrosome, at the same time period): at least 10% | half-life ([1]; male, liver microsomes (hepatomicrosome), human hepatomicrosome, read-out: Stability parameter (t1/2)): 19.9 min | Plasma-drug concentration ([2]; 0.17 hr): 573.76 ng/mL and 478.95 ng/mL | Plasma-drug concentration ([2]; 0.25 hr): 528.54 ng/mL and 508.71 ng/mL | Plasma-drug concentration ([2]; 0.5 hr): 533.71 ng/mL and 487.88 ng/mL | Plasma-drug concentration ([2]; 0.75 hr): 122.04 ng/mL and 91.24 ng/mL | Plasma-drug concentration ([2]; 1 hr): 36.24 ng/mL and 24.30 ng/mL | Plasma-drug concentration ([2]; 2 hr, LLOQ 1 ng/ml): BLQ | Plasma-drug concentration ([2]; 4 hr, LLOQ 1 ng/ml): BLQ | AUC(0−t) [2, 3]: 327.39 ng·h/mL and 291.62 ng·h/mL | AUC(0−∞) [2, 3]: 295.67 ng·h/mL | Cl [2, 3]: 23.6747 mL/min/kg | Cmax [2, 3]: 573.76 ng/mL and 508.71 ng/mL | T1/2 [2, 3]: 7.2 min | Tmax [2, 3]: 30 min and 10.2 min and 15 min | Vss [2, 3]: 0.20706 L/kg
